Assay results published in publication PMC7426938, “Induction of mitochondria-mediated apoptosis and suppression of tumor growth in zebrafish xenograft model by cyclic dipeptides identified from Exiguobacterium acetylicum” (Scientific Reports, 2020).

Assays:
[1] = test system: Bid protein in HT-29 cells; assay: Western blot, Bid protein; type: cell-based, human; settings: for Bid protein expression up-regulation: 200 μM, 24 h, vs untreated group
Experimental: (§1) Total protein was isolated from HT-29 cells by using lysis buffer. Cells were collected by centrifugation at 1,500 rpm for 5 min. After that, cell pellets were re-suspended with RIPA lysis buffer consisting of 1 mM protease inhibitor cocktail (PIC; Sigma-Aldrich; P8340) and lysed at […] for 1 h. After incubation, the protein was obtained by centrifugation at 13,000 × g for 15 min and kept for − 80 °C until analysis. Also, mitochondrial and cytosolic fractions were obtained by using fraction lysis buffer as described previously[50] with minor modifications. Lysed cells were kept in ice for 10 min and then cells were triturated by a 27 gauge syringe (25 strokes) to become homogeneous followed by centrifugation at 13,000 × g for 30 min. The collected supernatant was the cytosolic fraction. After the pellet was washed with lysis buffer and it was dissolved in lysis buffer for protein quantification. Protein concentration was measured by Pierce BCA protein assay kit (Thermo Scientific Laboratories, Rockford, USA) according to the manufacturer instructions. Equal amounts of proteins from all samples were separated by 10% SDS–polyacrylamide gel electrophoresis (SDS-PAGE) and electrotransferred. Polyvinylidene difluoride (PVDF) membrane was blocked with 5% skimmed milk for 1 h, followed by incubation with primary (Cytochrome-c: sc-13560; Bid: sc-11423; COX-IV: #4850; 1:2000; GAPDH: #3683; 1:10,000) and HRP-conjugated secondary (Got Anti-mouse IgG: 20102; Got anti-rabbit IgG: 20202: 1:10,000) antibodies against specific proteins. The protein signals were detected by Enhanced Chemiluminescence (ECL) detection kit (Amersham Piscataway, NJ, USA). The protein expression levels were analyzed by measuring the intensity of the band from scanned films using Image-J software. GAPDH and COX-IV served as a housekeeping protein to normalize the expression levels.

[2] = test system: Cytc protein in HT-29 cells; assay: Western blot, Cytc protein; type: cell-based, human; settings: 100 μM, 24 h, whole-cell lysate, vs untreated cells
Experimental: as §1

[3] = test system: Cytc (Cytochrome-c) mRNA in HT-29 cells; assay: sqRT-PCR gene expression, Cytc; type: cell-based, human; settings: 200 μM, 24 h, vs untreated cells
Experimental: (§2) Total RNA was isolated from HT-29 cells using the TRIzol reagent (TaKara, Japan) following the manufacturer’s instruction. The quantity and quality of each RNA sample were analyzed with a NanoDrop-1000 (Thermo Fisher Scientific, USA), followed by conversion to cDNA using RevertAid cDNA synthesis kit (Thermo Fisher Scientific, CA, USA) using 1 μg of mRNA to synthesize cDNA. Semi-quantitative reverse transcriptase-polymerase chain (sqRT-PCR) reaction was carried out in a Veriti Thermal Cycler (Applied Biosystems, CA, USA) using 2X Taq DNA polymerase Master Mix RED (Ampliqon, Denmark, Germany) as we previously described method. All sqRT-PCRs were run for at least three times. GAPDH served as a housekeeping gene to normalize the expression levels. The expression levels were analyzed by measuring the intensity of the band from the gel using Image-J software.

[4] = test system: Colorectal cancer HT-29 cells; assay: MTT cell viability assay, HT-29; type: cell-based; settings: Homo sapiens; for viability at 125 µM: 24 h treatment, read-out: relative percentage viability of HT-29 cells; for IC50: 24 h, MTT, read-out: HT-29 cells inhibitory (IC50) dose
Experimental: Human colorectal cancer (HT-29) and mouse embryonic fibroblast (3T3) cells were obtained from the American Type Culture Collection Centre (ATCC, VA, USA). Both cells were grown in Dulbecco Modified Eagle's Medium (DMEM, HiMedia, India) supplemented with 10% heat-inactivated fetal bovine serum (FBS), penicillin (50 units/mL), and streptomycin (50 µg/mL) and were cultured at 37 °C, 5% CO2 in a humidified atmosphere.
Cytotoxicity of the identified those DKPs were determined by cell viability study with the MTT (3-(4, 5-dimethylthiazol-2yl)-2, 5-diphenyltetrazolium bromide) reduction assay[49]. Briefly, 1.5 × 10^4 cells/well (HT-29) and 1.7 × 10^4 cells/well (3T3) cells were seeded into 96-well plates. They were incubated for 24 h at 37 °C with 5% CO2 and 95% relative humidity atmosphere. After 24 h, identified DKPs were added different concentrations (12.5 to 200 µM) into culture media in triplicates and re-incubated under the same culture conditions mentioned above. The final concentration of DMSO solution was 0.25% in the cells served as a negative control. Then culture media was removed from the plates, and 100 μL of freshly prepared MTT solution in serum-free medium (5 mg/mL) was added to each well and further incubated for 4 h. After that, 150 μL of DMSO solution was added under dark conditions and kept for 30 min at room temperature. The absorbance of the formazan product was measured at 595 nm in the microplate reader (Imark, Biorad). The percentage viability of the cells was measured by using the formula: Cell viability (%) = [(test/control) × 100)].
Results were expressed as mean ± standard deviation (SD). Data were analyzed one-way analysis of variance (ANOVA), followed by Student’s two-tailed t-test for comparison between two groups and Dunnett’s t-test was used when the data involved three or more groups. A value of p < 0.05 was considered statistically significant. All statistical analyses and inhibitory concentration (IC50) were determined by graph-pad prism statistical software (San Diego, CA, USA).

[5] = test system: zebrafish (ABiC) embryos; assay: Zebrafish embryo developmental toxicity assay; type: in vivo, zebrafish (Danio rerio); settings: for survival rate of embryos compared with untreated and DMSO treated embryos: 50, 100 and 150 μM, 96 hpf
[6] = test system: Casp-3 (Caspase-3) mRNA in HT-29 cells; assay: sqRT-PCR gene expression, Casp-3; type: cell-based, human; settings: 200 μM, 24 h, vs untreated cells
Experimental: as §2

Structure (SMILES)	Bid protein expression up-regulation [1]	Cytc protein expression up-regulation [2]	Cytc gene expression up-regulation [3]	viability at 125 µM [4]	IC50 [4]	survival rate of embryos compared with untreated and DMSO treated embryos [5]	Casp-3 gene expression up-regulation [6]	survival rate of embryos compared with untreated embryos ([5]; lower doses (50 and 150 μM))	Bid protein expression level ([1]; 100 μM, vs control and 200 μM)
CC(C)C[C@@H]1NC(=O)[C@@H]2CCCN2C1=O [DKP-1, cyclo (L-Pro-L-Leu)]	1.32 fold	1.21 fold	2.32 fold	36.3 ± 5.08%	100 µM	no significant decrease	2.32 fold	–	–
CC(C)[C@@H]1NC(=O)[C@@H]2CCCN2C1=O [DKP-2, cyclo (L-Pro-L-Val)]	1.21 fold	–	1.78 fold	42.3 ± 2.25%	118 µM	no significant decrease	1.31 fold	–	–
O=C1N[C@@H](Cc2ccccc2)C(=O)N2CCC[C@@H]12 [DKP-3, cyclo (L-Pro-L-Phe)]	1.76 fold	1.45 fold	4.29 fold	34.7 ± 4.03%	85.2 µM	–	1.76 fold	higher	–
O=C1N[C@@H](Cc2ccc(O)cc2)C(=O)N2CCC[C@@H]12 [DKP-4, cyclo (L-Pro-L-Tyr)]	–	1.85 fold	3.62 fold	42.1 ± 2.94%	98 µM	no significant decrease	2.73 fold	–	increased the expression level of Bid
